Results published in patent US11673867B2, “Sulfonamide derivative or pharmaceutically acceptable acid-addition salt” (University of Tsukuba, priority 2017, dated 2023).
pEC50: −log10 of the molar value.

The compounds below were run against T1, human OX2R (Homo sapiens, UniProt O43614) (assay: Evaluation of agonist activity against OX2R (intracellular calcium, Fura-2AM, FDSS7000, CHOOX2R cells)). Settings: CHO cells expressing human OX2R; calcium fluorescence ratio 340/380 nm; 10^-11.5 M to 10^-5 M.
T1 construct: expressed in transfected cells; host or cells: CHO (Chinese hamster ovary) cells, line CHOOX2R, also expressing NFAT-luciferase
T1 sequence (O43614 1-444): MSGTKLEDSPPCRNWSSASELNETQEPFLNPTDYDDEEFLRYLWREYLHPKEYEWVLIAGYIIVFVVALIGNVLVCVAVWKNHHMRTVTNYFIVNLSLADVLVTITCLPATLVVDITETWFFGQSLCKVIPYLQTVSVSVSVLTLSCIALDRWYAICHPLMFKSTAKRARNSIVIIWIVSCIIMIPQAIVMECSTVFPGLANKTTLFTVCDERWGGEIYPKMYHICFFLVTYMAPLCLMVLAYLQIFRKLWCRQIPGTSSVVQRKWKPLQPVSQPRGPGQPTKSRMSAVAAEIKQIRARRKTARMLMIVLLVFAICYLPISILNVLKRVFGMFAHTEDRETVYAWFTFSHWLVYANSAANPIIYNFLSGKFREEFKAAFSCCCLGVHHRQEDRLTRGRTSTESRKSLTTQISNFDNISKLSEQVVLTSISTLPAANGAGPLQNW
Type: cell-based
Experimental: Evaluation of Agonist Activity Against OX2R
NAFT-luciferase gene and human OX2R gene were constitutively expressed in CHO cell, which is a cell line derived from Chinese hamster ovary to establish a cell line (CHOOX2R). The cells were seeded in a 96-well Multiplate at 10,000 cells/well and cultured in a 5% FBS (Thermo Scientific)-added DMEM medium (Sigma-Aldrich) for 48 hr. The medium was removed, an assay buffer (20 mM HEPES (Sigma-Aldrich), Hanks' balanced salt solution (Gibco), 0.1% BSA (Sigma-Aldrich), 2.5 mM probenecid acid (Wako Pure Chemical Industries, Ltd.)) (100 μL) containing 4 μM Fura-2AM (Cayman Chemical) was added, and the cells were incubated for 60 min. The buffer containing Fura-2AM was removed, and an assay buffer (75 μL) was added. An assay buffer (25 μL) containing a test compound was added thereto to start the reaction. Changes in the intracellular calcium ion concentration due to the reaction were measured by measuring the fluorescence intensity ratio by dual wavelength excitation at 340 and 380 nm, by using FDSS7000 (Hamamatsu Photonics K.K.). The test compound was dissolved in DMSO to 10 mM, and diluted with the assay buffer to a final concentration of 10^−11.5 M to 10^−5 M (final concentration of DMSO 1%).
With `CCCCCCCCc1ccc(N2CCCN(c3cccc(NS(=O)(=O)c4cc(-c5cccc(C(=O)N(C)C)c5)ccc4OC)c3)C2=O)cc1` [Example 15] the pEC50 was under 6.30.
For `CCOc1ccc(N2CCCN(c3cccc(NS(=O)(=O)c4cc(C(C)C)ccc4OC)c3)C2=O)cc1` [Example 22], the pEC50 was 7.42.
`CCCc1ccc(N2CCCN(c3cccc(NS(=O)(=O)c4cc(C5CNC(=O)C5)ccc4OC)c3)C2=O)cc1` (stereo not shown) [Example 18, 2-methoxy-N-(3-(2-oxo-3-(4-propylphenyl)tetrahydropyrimidin-1(2H)-yl)phenyl)-5-(5-oxopyrrolidin-3-yl)benzenesulfonamide] was tested, and the pEC50 was 8.20.
Compound `CCCCc1ccc(N2CCCN(c3cccc(NS(=O)(=O)c4cc(-c5cccc(C(=O)N(C)C)c5)ccc4OC)c3)C2=O)cc1` [Example 13, 3′-(N-(3-(3-(4-butylphenyl)-2-oxotetrahydropyrimidin-1(2H)-yl)phenyl)sulfamoyl)-4′-methoxy-N,N-dimethyl-[1,1′-biphenyl]-3-carboxamide] has a pEC50 of 8.12.
With `COc1ccc(-c2cccc(C(=O)N(C)C)c2)cc1S(=O)(=O)Nc1cccc(N2CCCN(c3ccc(-c4ccccc4)cc3)C2=O)c1` [Example 14] the pEC50 was 6.85.
`COc1ccc(-c2cccc(C(=O)N(C)C)c2)cc1S(=O)(=O)Nc1cccc(N2CCCN(c3ccc(C)cc3)C2=O)c1` [Example 2] gave a pEC50 of 8.29.
Work on `CCCc1ccc(N2CCCN(c3cccc(NS(=O)(=O)c4cc(C(C)C)ccc4OC)c3)C2=O)cc1` [Example 19, 5-isopropyl-2-methoxy-N-(3-(2-oxo-3-(4-propylphenyl)tetrahydropyrimidin-1(2H)-yl)phenyl)benzenesulfonamide] yielded a pEC50 of 7.71.
In the case of `COc1ccc(N2CCCN(c3cccc(NS(=O)(=O)c4cc(-c5cccc(C(=O)N(C)C)c5)ccc4OC)c3)C2=O)cc1` [Example 5], the pEC50 was 8.62.
With `COc1ccc(N2CCCN(c3cccc(NS(=O)(=O)c4cc(C(C)C)ccc4OC)c3)C2=O)cc1` [Example 21] the pEC50 was 7.09.
`COc1ccc(-c2cccc(C(=O)N(C)C)c2)cc1S(=O)(=O)Nc1cccc(N2CCCN(c3ccc(Oc4ccccc4)cc3)C2=O)c1` [Example 12, 4′-methoxy-N,N-dimethyl-3′-(N-(3-(2-oxo-3-(4-phenoxyphenyl)tetrahydropyrimidin-1(2H)-yl)phenyl)sulfamoyl)-[1,1′-biphenyl]-3-carboxamide] gave a pEC50 of 6.66.
`[2H]C([2H])([2H])Oc1ccc(-c2cccc(C(=O)N(C)C)c2)cc1S(=O)(=O)Nc1cccc(N2CCCN(c3ccc(CCC)cc3)C2=O)c1` [Example 16, 4′-(methoxy-d3)-N,N-dimethyl-3′-(N-(3-(2-oxo-3-(4-propylphenyl)tetrahydropyrimidin-1(2H)-yl)phenyl)sulfamoyl)-[1,1′-biphenyl]-3-carboxamide] gave a pEC50 of 9.07.
Work on `COc1ccc(-c2cccc(C(=O)N(C)C)c2)cc1S(=O)(=O)Nc1cccc(N2CCCN(c3ccc(OCC(F)(F)F)cc3)C2=O)c1` [Example 9] yielded a pEC50 of 7.70.
For `CCCc1ccc(N2CCCN(c3cccc(NS(=O)(=O)c4cc(-c5cccc(C(=O)N(C)C)c5)ccc4OC)c3)C2=O)cc1` [Example 1, 4′-methoxy-N,N-dimethyl-3′-(N-(3-(2-oxo-3-(4-propylphenyl)tetrahydropyrimidin-1(2H)-yl)phenyl)sulfamoyl)-[1,1′-biphenyl]-3-carboxamide], the pEC50 was 9.21.
`COc1ccc(-c2cccc(C(=O)N(C)C)c2)cc1S(=O)(=O)Nc1cccc(N2CCCN(c3ccc(C(C)C)cc3)C2=O)c1` [Example 4] was tested, and the pEC50 was 8.48.
Work on `COc1ccc(-c2cccc(C(=O)N(C)C)c2)cc1S(=O)(=O)Nc1cccc(N2CCCN(c3ccc(OCC(C)C)cc3)C2=O)c1` [Example 10] yielded a pEC50 of 7.18.
`CCOc1ccc(N2CCCN(c3cccc(NS(=O)(=O)c4cc(-c5cccc(C(=O)N(C)C)c5)ccc4OC)c3)C2=O)cc1` [Example 6, 3′-(N-(3-(3-(4-ethoxyphenyl)-2-oxotetrahydropyrimidin-1(2H)-yl)phenyl)sulfamoyl)-4′-methoxy-N,N-dimethyl-[1,1′-biphenyl]-3-carboxamide] was tested, and the pEC50 was 8.54.
`COc1ccc(C(C)C)cc1S(=O)(=O)Nc1cccc(N2CCCN(c3ccc(C(C)C)cc3)C2=O)c1` [Example 20] showed a pEC50 of 7.38.
`CCc1ccc(N2CCCN(c3cccc(NS(=O)(=O)c4cc(-c5cccc(C(=O)N(C)C)c5)ccc4OC)c3)C2=O)cc1` [Example 3] gave a pEC50 of 8.51.
`CCCCCCCCOc1ccc(N2CCCN(c3cccc(NS(=O)(=O)c4cc(-c5cccc(C(=O)N(C)C)c5)ccc4OC)c3)C2=O)cc1` [Example 11] was tested, and the pEC50 was under 6.30.
Compound `CCCc1ccc(N2CCCN(c3cccc(NS(=O)(=O)c4cc(-c5cccc(C(=O)N(C)C)c5)ccc4OC(F)(F)F)c3)C2=O)cc1` [Example 17, N,N-dimethyl-3′-(N-(3-(2-oxo-3-(4-propylphenyl)tetrahydropyrimidin-1(2H)-yl)phenyl)sulfamoyl)-4′-(trifluoromethoxy)-[1,1′-biphenyl]-3-carboxamide] has a pEC50 of 6.40.

What follows are compounds tested on orexin receptor-deficient mice (DKO mice) (assay: Awakening effect of oral administration to orexin receptor-deficient mice (DKO mice), negative control (EEG/EMG)). Settings: oral 5 mg/kg, versus control MC, measured 3 hr after administration, n=3.
Type: in vivo, mouse
Excerpt: (§1) C57BL/6J lineage wild-type (WT) mice, and orexin receptor-deficient mice (DKO mice) (both males) as a negative control were used as experimental animals. The mice (9 to 35 weeks of age) underwent surgery for embedding electroencephalogram electrodes into the skull (Bregma: X=1.5; Y=0.6, Lambda: X=1.5; Y=0) and inserting electromyogram electrodes into the trapezius muscle under isoflurane anesthesia. Two weeks postoperation were the recovery period and acclimation period to the electroencephalogram/electromyogram measurement cage, after which administration and measurement were performed. To prepare a suspension for oral administration of the test compound, the compound was grinded in an agate mortar for 20 min and sufficiently stirred while adding a small amount of 0.5% methylcellulose aqueous solution (MC). The suspension (100 μL) was dispensed into an oral gavage needle. The suspensions were prepared 30 min before administration.
(§2) To the WT mice were orally administered 100 μL each of the control MC or the test compound during the light period (ZT6) in the sleep period. The test compound was administered at concentrations of 0.625 mg/kg-25 mg/kg according to the stage. DKO mice were also evaluated by a similar method, in which MC or a test compound (5 mg/kg) was orally administered, and electroencephalogram and electromyogram were measured for 3 hr after the administration. […]
With `CCCc1ccc(N2CCCN(c3cccc(NS(=O)(=O)c4cc(-c5cccc(C(=O)N(C)C)c5)ccc4OC)c3)C2=O)cc1` [Example 1, 4′-methoxy-N,N-dimethyl-3′-(N-(3-(2-oxo-3-(4-propylphenyl)tetrahydropyrimidin-1(2H)-yl)phenyl)sulfamoyl)-[1,1′-biphenyl]-3-carboxamide] the “awakening time (awakening prolonging effect)” value was “no significant difference in the awakening time”.

Each compound was assayed on C57BL/6J lineage wild-type (WT) mice (assay: Awakening effect of oral administration (light period) to wild-type mice (EEG/EMG)). Settings: ZT6 light period, 0.625 mg/kg-25 mg/kg, versus control MC, 60, 120, 180 min after administration, n=3.
Type: in vivo, mouse
Excerpt: Awakening Effect of Oral Administration (Light Period) of Test Compound to Wild-Type Mice
As the test compound, the compound of Example 1 was used.
as §1, with “The suspensions were prepared 30 min before administration.” left out
as §2, with “The test compound was administered at concentrations of 0.625 mg/kg-25 mg/kg according to the stage.” left out
`CCCc1ccc(N2CCCN(c3cccc(NS(=O)(=O)c4cc(-c5cccc(C(=O)N(C)C)c5)ccc4OC)c3)C2=O)cc1` [Example 1, 4′-methoxy-N,N-dimethyl-3′-(N-(3-(2-oxo-3-(4-propylphenyl)tetrahydropyrimidin-1(2H)-yl)phenyl)sulfamoyl)-[1,1′-biphenyl]-3-carboxamide] was tested, and the “awakening time (awakening prolonging effect)” value was “significantly prolonged the awakening time and increased the awakening time in a dose-dependent manner”.
